Experimental data taken from patent US8394816B2, “Methods of using [3.2.0] heterocyclic compounds and analogs thereof in treating Waldenstrom's Macroglobulinemia” (priority 2007, dated 2013).

Experiments:
Stability in solution = type: physicochemical; conditions: converted to compound VI-1B, mixture 7:3
Method: The compound of Formula I-16 (15 mg, 0.048 mmol) was dissolved in 1:1 ratio of ACN/DMSO (8 ml) in a scintillation vial (20 ml) to which triethylamine (40 μl, 0.29 mmol), Glutathione (44.2 mg, 0.144 mmol) and a magnetic stir bar were added. The reaction mixture was stirred at room temperature for about 3 hours. The solvent was evaporated from the reaction mixture to yield the compound of Formula I-48, which was purified by reversed phase HPLC using Ace 5u C18 column (150 mm×22 mm ID) with a solvent gradient of 10% to 70% H2O/Acetonitrile over 15 min, 70 to 100% Acetonitrile over 5 min, holding at 100% Acetonitrile for 4 min, at a flow rate of 14.5 ml/min. Diode array detector was used to monitor the purification process. Compound I-48 (10 mg) eluted as a pure compound at 8.255 min. Compound I-48: UV (Acetonitrile/H2O) λmax 235 (sh) nm; ESMS m/z 621.0 (M+H)^+. […] Compound VI-1B: UV (Acetonitrile/H2O) λmax 235 (sh) nm; ESMS, m/z 585.2 (M+H)^+.

[1] = tested on: Akt and STAT-3 phosphorylation; assay: IL-6-triggered Akt and STAT-3 phosphorylation, western blotting; type: cell-based; conditions: each agent 10 nM, 8 hours; IL-6 25 ng/mL 10 minutes
Method: Cells were then stimulated with IL-6 (25 ng/mL) for 10 minutes.
(§1) The effect of the two proteasome inhibitors on cytotoxicity of WM cells in the presence of IL-6 was also investigated. […] Whether the two proteasome inhibitors, used as single agent or in combination, could also target non-malignant hematopoietic cells was investigated.

[2] = tested on: caspase-like (C-L) activity of the 20S proteasome; assay: 20S proteasome caspase-like activity in treated cells; type: cell-based; conditions: each agent 10 nM, 4 hours
[3] = tested on: BCWM.1 cells homing to the bone marrow; type: in vivo, BALB/c mice; conditions: single agents, cells pretreated; data not shown
Method: FIG. 6D is a graph showing in vivo flow cytometry. DiI-labeled treated cells and DiR-labeled untreated cells were injected in the tail vein of 2 BALB/c mice. Cells were counted every 5 min for 45 minutes as described in Material and Methods.
DI-labeled BCWM.1 cells treated with salinosporamide A (10 nM, 4 hours), alone or in combination with bortezomib (5 nM), or DiR-labeled untreated BCWM.1 cells used as control were injected in the tail vein of BALB/c mice, followed by in vivo flow cytometry every 5 minutes for 45 minutes after injection.

WM = conditions: single agent, phase I trials; cited from earlier work
[4] = tested on: chymotrypsin-like (CT-L) activity of the 20S proteasome; assay: 20S proteasome chymotrypsin-like activity in treated cells; conditions: 10 nM, 4 hours
[5] = tested on: p65 phosphorylation and p50NF-κB expression; assay: Fibronectin-induced NF-κB activity, western blotting of nuclear extracts; conditions: each agent 10 nM, 4 hours
From the text: Nuclear extracts were subjected to western blotting using anti-p-p65, -p50, and -nucleolin antibodies.

BCWM.1 cells [6] = assay: IL-6-induced proliferation, thymidine uptake; type: cell-based; conditions: salinosporamide A 2.5-20 nM, bortezomib 10 nM, IL-6 25 ng/mL
Method: Proliferation was assessed by thymidine uptake assay.
as §1

Akt = assay: In vitro Akt kinase assay; type: cell-based; conditions: each agent 10 nM
From the text: FIG. 4B is a picture showing In vitro Akt kinase assay. […] Whole cell lysates were immunoprecipitated with anti-Akt antibody. Then the immunoprecipitate was washed and subjected to in vitro kinase assay according to manufacturer's protocol. Western blotting used anti-p-GSK3α/β and anti-Akt antibodies.

BCWM.1 cells [7] = type: cell-based; conditions: for caspases-3, 8 and 9 cleavage: each agent 10 nM
From the text: To further dissect whether apoptosis is mediated through the intrinsic or extrinsic pathways, the effect of salinosporamide A, bortezomib and the combination on caspases-3, 8 and 9 was investigated.

[8] = tested on: trypsin-like (T-L) activity of the 20S proteasome; assay: 20S proteasome trypsin-like activity in treated cells; conditions: 10 nM, 4 hours
[9] = tested on: PI3K/Akt signaling pathway in BCWM.1 cells; assay: Western blotting of PI3K/Akt signaling pathway; conditions: 2.5-20 nM, 6 hours
From the text: Whole cell lysate were subjected to Western blotting using anti-p-Akt, -Akt, -p-GSK3α/β, -p-S6R, -p-ERK, and -α-tubulin antibodies.

[10] = tested on: primary CD19+ cells isolated from three patients with WM; assay: tissue or blood; conditions: Homo sapiens, read-out: IC50, cytotoxicity in primary CD19+ cells (MTT)
Method: FIG. 1D is a graph showing freshly isolated bone marrow CD19^+ tumor cells from 3 patients with WM were cultured with salinosporamide A (2.5-40 nM [E]; 2.5-80 nM [F]). Cytotoxicity was assessed by MTT assay.

[11] = tested on: BM hematopoietic progenitor cells; assay: Colony-forming cell assay; conditions: salinosporamide A 10 nM, 20 nM; bortezomib 10 nM; day 14
From the text: FIG. 5D is a graph showing colony-forming cell assay. […] All experiments have been done in triplicate.
as §1

BCWM.1 cells [12] = assay: cells
Method: (§2) FIG. 1A is a graph showing thymidine uptake assay and cytotoxicity assessed by MTT. BCWM.1 cells were cultured with salinosporamide A (2.5-40 nM) for 48 hours.
FIG. 2A is a graph showing BCWM.1 cells cultured with salinosporamide A (2.5, 5 and 10 nM) for 48 hours, in the presence or absence of bortezomib (5 and 10 nM). Cytotoxicity was assessed by MTT assay.
All experiments were repeated in triplicate.

[13] = tested on: PBMCs from 3 healthy volunteers
BCWM.1 cells [14] = assay: [3H]-thymidine uptake proliferation assay; type: cell-based; conditions: BCWM1; BCWM.1, 48 hours; read-out: IC50, inhibition of proliferation ([3H]-thymidine uptake)
Method: as §2
WM and IgM-secreting cell lines were cultured for 48 hours in the presence of salinosporamide A (Formula I-16) (2.5-40 nM).

WM-WSU, MEC-1, Namalwa [15] = assay: [3H]-thymidine uptake assay, IgM-secreting cell lines; type: cell-based; conditions: Homo sapiens, MEC1, 48 hours, read-out: IC50, [3H]-thymidine uptake, all cell lines tested
Method: FIG. 1B is a graph showing thymidine uptake assay.
WM and IgM-secreting cell lines were cultured for 48 hours in the presence of salinosporamide A (Formula I-16) (2.5-40 nM). […]

[16] = tested on: BCWM.1 cells adherent to BMSCs; assay: [3H]-TdR uptake in co-culture with BMSCs; type: cell-based; conditions: salinosporamide A 2.5-20 nM, bortezomib 10 nM, 48 hours
Method: Whether salinosporamide A, alone or in combination with bortezomib, inhibits WM cells growth in the context of the BM milieu was investigated. BCWM.1 cells were cultured with salinosporamide A (2.5-20 nM) and/or bortezomib (10 nM) in the presence or absence of BMSCs, for 48 hours.

WM-WSU, MEC-1, Namalwa [17] = assay: MTT cytotoxicity assay, other IgM-secreting cell lines; type: cell-based; conditions: Homo sapiens, MEC1; 48 hours
[18] = tested on: Akt knockdown BCWM.1 cell line; assay: MTT cytotoxicity in Akt knockdown cell line; conditions: 2.5-20 nM, 48 hours
Method: BCWM.1 transfected cells or BCWM.1 control cells were treated with salinosporamide A (2.5-20 nM) for 48 hours. Cytotoxicity was assessed by MTT assay.

NF-κBp65 = NF-κBp65 DNA binding activity (Active Motif assay), TNF-α stimulated; type: cell-based; conditions: each agent 10 nM, 4 hours; TNF-α 10 ng/mL last 20 minutes
Method: FIG. 3A is a graph showing BCWM.1 cells cultured with either salinosporamide A (10 nM), bortezomib (10 nM), or the combination for 4 hours, then human TNF-α (10 ng/mL) was added for the last 20 minutes. NF-κBp65 transcription factor-binding to its consensus sequence on the plate-bound oligonucleotide was studied from nuclear extract. Wild type and mutant are wild type and mutated consensus competitor oligonucleotides, respectively. All results represent means (±sd) of triplicate experiments.
The effect of salinosporamide A either alone or in combination with bortezomib on the NF-κBp65 DNA binding activity was investigated, studying nuclear extracts from treated cells using the Active Motif assay. […] Phospho-p65 translocation from the cytoplasmic compartment to the nucleus was inhibited by the combination of bortezomib and salinosporamide A, resulting in a significant increase in p-p65 expression in the cytoplasmic compartment as shown by immunofluorescence (FIG. 3D).

BCWM.1 cells [19] = assay: Apo2.7 staining apoptosis, flow cytometry; type: cell-based; conditions: 48 hours, untreated 5%
Method: FIG. 1E is a graph showing BCWM. 1 cultured with salinosporamide A for 48 hours at doses that range from 2 to 30 nM and the percentage of cells undergoing apoptosis was studied by Apo2.7 staining.
The molecular mechanisms whereby salinosporamide A induces cytotoxicity in WM cells was examined.

BCWM.1 cells [20] = assay: Transwell migration assay towards SDF-1; type: cell-based; conditions: each agent 10 nM, 4 hours; SDF-1 30 nM
From the text: Cells were then subjected to migration as previously described in Alsayed Y, Ngo H, Runnels J., et al. Mechanisms of regulation of CXCR4/SDF-1 (CXCL12)-dependent migration and homing in multiple myeloma. Blood.

For `C[C@]1(O)[C@@H](CCCl)C(=O)N[C@]1(C(=O)SCC(NC(=O)CCC(N)C(=O)O)C(=O)NCC(=O)O)[C@@H](O)[C@@H]1C=CCCC1` (some centres unmarked) [Compound I-48], the stability in solution (Stability in solution) was “unstable in solution”.
For `CC(C)C[C@H](NC(=O)[C@H](Cc1ccccc1)NC(=O)c1cnccn1)B(O)O` [bortezomib, Bortezomib, reference compound], the “IL-6-triggered Akt and STAT-3 phosphorylation” value [1] was “inhibited IL-6-triggered Akt and STAT-3 phosphorylation”, the “reduction of the C-L activity” value [2] was 29% and the “homing of WM cells to the bone marrow” value [3] was “Neither salinosporamide A nor bortezomib used as single agents significantly inhibited homing”. For the same compound, the “responses in WM” value (WM) was 40-80%, the “reduction of the CT-L activity” value [4] was 69% and the “FN-induced p65 phosphorylation and p50NF-κB expression” value [5] was “inhibited”. The “IL-6-induced proliferation of BCWM.1 cells” value (BCWM.1 cells [6]) was “inhibited IL-6-induced proliferation of BCWM.1 cells”, the “Akt kinase activity (phosphorylation of GSK3α/β fusion protein)” value (Akt) was “did not modulate Akt phosphorylation” and the “caspases-3, 8 and 9 cleavage” value (BCWM.1 cells [7]; 12 hours) was “induced-9 and -3 cleavage”. For the same compound, the “reduction of the T-L activity” value [8] was 5%.
With `C[C@@]12OC(=O)[C@]1([C@@H](O)[C@@H]1C=CCCC1)NC(=O)[C@@H]2CCCl` [salinosporamide A] the “phosphorylation of Akt (ser473), GSK3α/β and ribosomal protein S6” value [9] was “inhibited phosphorylation of Akt (ser473), and downstream GSK3α/β and ribosomal protein S6 in a dose dependent manner”, the “phosphorylation of ERK1/2 (thr202/tyr204)” value [9] was “no activity on the phosphorylation of the MAP kinase ERK1/2” and the IC50 [10] was 0.02 to 0.03 µM. For the same compound, the “IL-6-triggered Akt and STAT-3 phosphorylation” value [1] was “inhibited IL-6-triggered Akt and STAT-3 phosphorylation”, the “growth of BM hematopoietic progenitor cells (colony formation)” value [11] was “did not affect the growth of BM hematopoietic progenitor cells” and the IC50 (BCWM.1 cells [12]; BCWM1, 48 h, read-out: IC50, decreased survival (MTT)) was 0.018 µM. The “cytotoxicity, % of BCWM.1 cells (MTT)” value (BCWM.1 cells [12]; human) was 12.4%, the “reduction of the C-L activity” value [2] was 34.3% and the “cytotoxic effect on PBMCs” value [13] was “no cytotoxic effect”. For the same compound, the “viability of BMSCs (MTT)” value (BMSCs) was “not affected”, the IC50 (BCWM.1 cells [14]) was 0.015 µM and the IC50 (WM-WSU, MEC-1, Namalwa [15]) was 0.02 to 0.03 µM. For the same compound, the “BMSC-triggered increase in proliferation of BCWM.1 cells” value [16] was “inhibited by salinosporamide A in a dose-dependent manner”, the IC50 (WM-WSU, MEC-1, Namalwa [17]) was 0.03 to 0.04 µM and the “homing of WM cells to the bone marrow” value [3] was “Neither salinosporamide A nor bortezomib used as single agents significantly inhibited homing”. For the same compound, the “cytotoxic effect in the absence of Akt” value [18] was “abrogated”, the “TNF-α induced NF-κB recruitment to the nucleus (NF-κBp65 DNA binding)” value (NF-κBp65) was “inhibited by salinosporamide A more than bortezomib” and the “percentage of apoptotic BCWM.1 cells” value (BCWM.1 cells [19]; 5 nM) was 21.2%. For the same compound, the “percentage of apoptotic BCWM.1 cells” value (BCWM.1 cells [19]; 20 nM) was 40%, the “WM cells migration towards SDF-1” value (BCWM.1 cells [20]) was “slightly inhibited” and the “reduction of the CT-L activity” value [4] was 81%. For the same compound, the “FN-induced p65 phosphorylation and p50NF-κB expression” value [5] was “inhibited”, the “IL-6-induced proliferation of BCWM.1 cells” value (BCWM.1 cells [6]) was “inhibited IL-6-induced proliferation of BCWM.1 cells” and the “Akt kinase activity (phosphorylation of GSK3α/β fusion protein)” value (Akt) was “decreased phosphorylation of GSK3α/β fusion protein”. For the same compound, the Mcl-1 expression (BCWM.1 cells [7]; 2.5-20 nM, 12 hours) was “induced down-modulation of the anti-apoptotic protein Mcl-1”, the XIAP expression (BCWM.1 cells [7]; 2.5-20 nM, 12 hours) was “down-regulated the expression of XIAP in a dose-dependent manner” and the “caspase-8 and PARP cleavage” value (BCWM.1 cells [7]; 2.5-20 nM, 12 hours) was “induced caspase-8 and PARP cleavage in a dose-dependent manner”. For the same compound, the “caspase-3 and -9” value (BCWM.1 cells [7]; 2.5-20 nM, data not shown) was “without affecting caspase-3 and -9”, the “caspases-3, 8 and 9 cleavage” value (BCWM.1 cells [7]; 12 hours) was “induced mild capsase-8 cleavage without affecting caspase-3 and 9 cleavage” and the “reduction of the T-L activity” value [8] was 38.7%.
